The source of these data is patent US5958940A, “Tricyclic compounds useful as inhibitors of farnesyl-protein transferase” (Schering Corporation, priority 1997, dated 1999).

This experiment addresses T1, farnesyl protein transferase (Rattus norvegicus, UniProt Q02293+Q04631).
T1 construct: partially purified rat brain farnesyl protein transferase (FPT); from tissue; host or cells: rat brain, partially purified
Description: FPT inhibition, in vitro enzyme assay (Ras-CVLS farnesylation by partially purified rat brain FPT). The class given is biochemical.

What is called inhibition is the change of the read-out against control, counted positive when it falls. The low end stands for a response near the control, the high end for a response far below the control. Consider `O=C(NCc1cccnc1)[C@@H]1CCN1C1c2ccc(Cl)cc2CCc2cc(Br)cnc21` (single isomer, unassigned) [Example 3 Isomer B, 1-(3-bromo-8-chloro-6,11-dihydro-5H-benzo[5,6]cyclohepta[1,2-b]pyridine-11-yl)-N-(3-pyridinylmethyl)2-azetidine carboxamide], for which, under “@0.1 μM”, 0.1 µM produced 17% inhibition.
`O=C(NCc1cccnc1)[C@@H]1CCCN1C1c2ncc(Br)cc2CCc2cc(Cl)cc(Br)c21` (single isomer, unassigned) [Example 2 Isomer A, 1-(3,10-dibromo-8-chloro-6,11-dihydro-5H-benzo[5,6]cyclohepta[1,2-b]pyridine-11-yl)-N-(3-pyridinylmethyl)-2-pyrrolidine carboxamide] showed an inhibition at 0.3 µM (@0.3 μM) of 15%.
